{"source": "patent US20240317754A1", "about": "(priority 2020, published 2024)", "experiment_in_all_cases": "microbe, parasite or virus in culture", "format_in_all_cases": "cell-based", "key": {"SARS-CoV replicon": {"test_system": "SARS-CoV replicon", "conditions": "Severe acute respiratory syndrome coronavirus, HEK-293T, 60 h"}, "SARS-CoV-2 replicon": {"test_system": "SARS-CoV-2 replicon", "conditions": "HEK293T cells; for inhibition at 10 µM / IC50: Severe acute respiratory syndrome coronavirus 2, HEK-293T, 60 h; for antiviral activity relative to GS-441524: in words"}, "SARS-CoV-2 (B.1)": {"test_system": "SARS-CoV-2 (B.1)", "conditions": "Severe acute respiratory syndrome coronavirus 2, Vero C1008, 48 h"}}}
{"smiles": "CC(=O)OC[C@H]1O[C@@](C#N)(c2ccc3c(N)ncnn23)[C@H](OC(C)=O)[C@@H]1OC(C)=O", "note": "[ATV003, (2R,3R,4R,5R)-5-(acetoxymethyl)-2-(4-aminopyrrolo[2,1-f][1,2,4]triazin-7-yl)-2-cyanotetrahydrofuran-3,4-diyl diacetate]", "values": [{"measurement": "IC50", "setting": "SARS-CoV replicon", "value": 910, "unit": "nM"}, {"measurement": "inhibition at 10 µM", "setting": "SARS-CoV replicon", "value": 98.8, "unit": "%"}, {"measurement": "inhibition at 10 µM", "setting": "SARS-CoV-2 replicon", "value": 97.6, "unit": "%"}, {"measurement": "IC50", "setting": "SARS-CoV-2 replicon", "value": 830, "unit": "nM"}]}
{"smiles": "CCCCCCCCC(=O)OC[C@H]1O[C@@](C#N)(c2ccc3c(N)ncnn23)[C@H](O)[C@@H]1O", "note": "[ATV010, ((2R,3S,4R,5R)-5-(4-aminopyrrolo[2,1-f][1,2,4]triazin-7-yl)-5-cyano-3,4-dihydroxytetrahydrofuran-2-yl)methyl nonanoate]", "values": [{"measurement": "antiviral activity relative to GS-441524", "setting": "SARS-CoV-2 replicon", "value": "improved"}, {"measurement": "inhibition at 10 µM", "setting": "SARS-CoV-2 replicon", "value": 99, "unit": "%"}, {"measurement": "IC50", "setting": "SARS-CoV-2 replicon", "value": 320, "unit": "nM"}, {"measurement": "IC50", "setting": "SARS-CoV-2 (B.1)", "value": 696, "unit": "nM"}]}
{"smiles": "CC(C)C(=O)OC[C@H]1O[C@@](C#N)(c2cc(F)c3c(N)ncnn23)[C@H](O)[C@@H]1O", "note": "[ATV025, ((2R,3S,4R,5R)-5-(4-amino-5-fluoropyrrolo[2,1-f][1,2,4]triazin-7-yl)-5-cyano-3,4-dihydroxytetrahydrofuran-2-yl)methyl isobutyrate]", "values": [{"measurement": "inhibition at 10 µM", "setting": "SARS-CoV-2 replicon", "value": 97.8, "unit": "%"}, {"measurement": "IC50", "setting": "SARS-CoV-2 replicon", "value": 890, "unit": "nM"}]}
{"smiles": "CC(C)[C@H](N)C(=O)OC[C@H]1O[C@@](C#N)(c2ccc3c(N)ncnn23)[C@H](O)[C@@H]1O", "note": "[ATV020, ((2R,3S,4R,5R)-5-(4-aminopyrrolo[2,1-f][1,2,4]triazin-7-yl)-5-cyano-3,4-dihydroxytetrahydrofuran-2-yl)methyl L-valinate]", "values": [{"measurement": "IC50", "setting": "SARS-CoV replicon", "value": 1300, "unit": "nM"}, {"measurement": "inhibition at 10 µM", "setting": "SARS-CoV replicon", "value": 99.2, "unit": "%"}, {"measurement": "inhibition at 10 µM", "setting": "SARS-CoV-2 replicon", "value": 99.2, "unit": "%"}, {"measurement": "IC50", "setting": "SARS-CoV-2 replicon", "value": 2350, "unit": "nM"}]}
{"smiles": "CC(=O)Nc1ncnn2c([C@]3(C#N)O[C@H](COC(C)=O)[C@@H](OC(C)=O)[C@H]3OC(C)=O)ccc12", "note": "[ATV002, (2R,3R,4R,5R)-2-(4-acetamidopyrrolo[2,1-f][1,2,4]triazin-7-yl)-5-(acetoxymethyl)-2-cyanotetrahydrofuran-3,4-diyl diacetate]", "values": [{"measurement": "inhibition at 10 µM", "setting": "SARS-CoV replicon", "value": 61, "unit": "%"}, {"measurement": "antiviral activity relative to GS-441524", "setting": "SARS-CoV-2 replicon", "value": "significantly lower than that of GS-441524"}, {"measurement": "IC50", "setting": "SARS-CoV-2 replicon", "value": "> 50000", "unit": "nM"}]}
{"smiles": "CCCCCOC(=O)Nc1ncnn2c([C@]3(C#N)O[C@H](CO)[C@@H](O)[C@H]3O)ccc12", "note": "[ATV005, Pentyl (7-((2R,3R,4S,5R)-2-cyano-3,4-dihydroxy-5-(hydroxymethyl)tetrahydrofuran-2-yl)pyrrolo[2,1-f][1,2,4]triazin-4-yl)carbamate]", "values": [{"measurement": "inhibition at 10 µM", "setting": "SARS-CoV replicon", "value": 73.3, "unit": "%"}, {"measurement": "IC50", "setting": "SARS-CoV-2 replicon", "value": "> 50000", "unit": "nM"}]}
{"smiles": "N#C[C@@]1(c2ccc3c(N)ncnn23)O[C@H](COC(=O)C2CCCC2)[C@@H](O)[C@H]1O", "note": "[ATV015, ((2R,3S,4R,5R)-5-(4-aminopyrrolo[2,1-f][1,2,4]triazin-7-yl)-5-cyano-3,4-dihydroxytetrahydrofuran-2-yl)methyl cyclopentanecarboxylate]", "values": [{"measurement": "inhibition at 10 µM", "setting": "SARS-CoV-2 replicon", "value": 97.9, "unit": "%"}, {"measurement": "IC50", "setting": "SARS-CoV-2 replicon", "value": 710, "unit": "nM"}]}
{"smiles": "CC(C)C(=O)OC[C@H]1O[C@@](C#N)(c2ccc3c(N)ncnn23)[C@H](OC(=O)C(C)C)[C@@H]1OC(=O)C(C)C", "note": "[ATV004, (2R,3R,4R,5R)-2-(4-aminopyrrolo[2,1-f][1,2,4]triazin-7-yl)-2-cyano-5-((isobutyryloxy)methyl)tetrahydrofuran-3,4-diyl bis(2-methylpropanoate)]", "values": [{"measurement": "inhibition at 5 µM", "setting": "SARS-CoV replicon", "value": 91.8, "unit": "%"}, {"measurement": "antiviral activity relative to GS-441524", "setting": "SARS-CoV-2 replicon", "value": "improved"}, {"measurement": "inhibition at 10 µM", "setting": "SARS-CoV-2 replicon", "value": 97.5, "unit": "%"}, {"measurement": "IC50", "setting": "SARS-CoV-2 replicon", "value": 680, "unit": "nM"}]}
{"smiles": "CCC(C)[C@@H](N)C(=O)OC[C@H]1O[C@@](C#N)(c2ccc3c(N)ncnn23)[C@H](O)[C@@H]1O", "note": "(stereo partly drawn) [ATV024, ((2R,3S,4R,5R)-5-(4-aminopyrrolo[2,1-f][1,2,4]triazin-7-yl)-5-cyano-3,4-dihydroxytetrahydrofuran-2-yl)methyl (2R)-2-amino-3-methylpentanoate]", "values": [{"measurement": "inhibition at 10 µM", "setting": "SARS-CoV-2 replicon", "value": 99.1, "unit": "%"}, {"measurement": "IC50", "setting": "SARS-CoV-2 replicon", "value": 860, "unit": "nM"}]}
{"smiles": "CCC(=O)OC[C@H]1O[C@@](C#N)(c2ccc3c(N)ncnn23)[C@H](O)[C@@H]1O", "note": "[ATV008, ((2R,3S,4R,5R)-5-(4-aminopyrrolo[2,1-f][1,2,4]triazin-7-yl)-5-cyano-3,4-dihydroxytetrahydrofuran-2-yl)methyl propionate]", "values": [{"measurement": "inhibition at 10 µM", "setting": "SARS-CoV-2 replicon", "value": 98.2, "unit": "%"}]}
{"smiles": "CC(C)C(=O)Nc1ncnn2c([C@]3(C#N)O[C@H](COC(=O)C(C)C)[C@@H](OC(=O)C(C)C)[C@H]3OC(=O)C(C)C)ccc12", "note": "[ATV001, (2R,3R,4R,5R)-2-cyano-2-(4-isobutyramidopyrrolo[2,1-f][1,2,4]triazin-7-PGP-yl)-5-((isobutyryloxy)methyl)tetrahydrofuran-3,4-diyl bis(2-methylpropanoate)]", "values": [{"measurement": "inhibition at 10 µM", "setting": "SARS-CoV replicon", "value": 66.8, "unit": "%"}, {"measurement": "antiviral activity relative to GS-441524", "setting": "SARS-CoV-2 replicon", "value": "significantly lower than that of GS-441524"}, {"measurement": "IC50", "setting": "SARS-CoV-2 replicon", "value": "> 50000", "unit": "nM"}]}
{"smiles": "CC1(C)O[C@H]2[C@@H](O1)[C@](C#N)(c1ccc3c(N)ncnn13)O[C@@H]2CO", "note": "[Intermediate 5 of RDV, reference compound]", "values": [{"measurement": "inhibition at 10 µM", "setting": "SARS-CoV replicon", "value": 75.9, "unit": "%"}, {"measurement": "IC50", "setting": "SARS-CoV-2 replicon", "value": "> 50000", "unit": "nM"}]}
{"smiles": "CC(C)[C@@H](N)C(=O)OC[C@H]1O[C@@](C#N)(c2ccc3c(N)ncnn23)[C@H](O)[C@@H]1O", "note": "[ATV019, ((2R,3S,4R,5R)-5-(4-aminopyrrolo[2,1-f][1,2,4]triazin-7-yl)-5-cyano-3,4-dihydroxytetrahydrofuran-2-yl)methyl D-valinate]", "values": [{"measurement": "IC50", "setting": "SARS-CoV replicon", "value": 790, "unit": "nM"}, {"measurement": "inhibition at 10 µM", "setting": "SARS-CoV replicon", "value": 98.6, "unit": "%"}, {"measurement": "inhibition at 10 µM", "setting": "SARS-CoV-2 replicon", "value": 97.2, "unit": "%"}, {"measurement": "IC50", "setting": "SARS-CoV-2 replicon", "value": 970, "unit": "nM"}]}
{"smiles": "N#C[C@@]1(c2ccc3c(N)ncnn23)O[C@H](COC(=O)[C@@H](N)Cc2ccccc2)[C@@H](O)[C@H]1O", "note": "[ATV021, ((2R,3S,4R,5R)-5-(4-aminopyrrolo[2,1-f][1,2,4]triazin-7-yl)-5-cyano-3,4-dihydroxytetrahydrofuran-2-yl)methyl L-phenylalaninate]", "values": [{"measurement": "inhibition at 10 µM", "setting": "SARS-CoV-2 replicon", "value": 0, "unit": "%"}]}
{"smiles": "CCC(C)[C@H](N)C(=O)OC[C@H]1O[C@@](C#N)(c2ccc3c(N)ncnn23)[C@H](O)[C@@H]1O", "note": "(stereo partly drawn) [ATV023, ((2R,3S,4R,5R)-5-(4-aminopyrrolo[2,1-f][1,2,4]triazin-7-yl)-5-cyano-3,4-dihydroxytetrahydrofuran-2-yl)methyl (2S)-2-amino-3-methylpentanoate]", "values": [{"measurement": "inhibition at 10 µM", "setting": "SARS-CoV-2 replicon", "value": 98.7, "unit": "%"}, {"measurement": "IC50", "setting": "SARS-CoV-2 replicon", "value": 950, "unit": "nM"}]}
{"smiles": "CC(=O)OC[C@H]1O[C@@](C#N)(c2ccc3c(N)ncnn23)[C@H](O)[C@@H]1O", "note": "[ATV007, ((2R,3S,4R,5R)-5-(4-aminopyrrolo[2,1-f][1,2,4]triazin-7-yl)-5-cyano-3,4-dihydroxytetrahydrofuran-2-yl)methyl acetate]", "values": [{"measurement": "inhibition at 10 µM", "setting": "SARS-CoV-2 replicon", "value": 91.6, "unit": "%"}]}
{"smiles": "N#C[C@@]1(c2ccc3c(N)ncnn23)O[C@H](COC(=O)CC(F)(F)F)[C@@H](O)[C@H]1O", "note": "[ATV016, ((2R,3S,4R,5R)-5-(4-aminopyrrolo[2,1-f][1,2,4]triazin-7-yl)-5-cyano-3,4-dihydroxytetrahydrofuran-2-yl)methyl3,3,3-trifluoropropanoate]", "values": [{"measurement": "inhibition at 10 µM", "setting": "SARS-CoV-2 replicon", "value": 97.2, "unit": "%"}, {"measurement": "IC50", "setting": "SARS-CoV-2 replicon", "value": 830, "unit": "nM"}]}
{"smiles": "N#C[C@@]1(c2ccc3c(N)ncnn23)O[C@H](COC(=O)[C@H](N)Cc2ccccc2)[C@@H](O)[C@H]1O", "note": "[ATV022, ((2R,3S,4R,5R)-5-(4-aminopyrrolo[2,1-f][1,2,4]triazin-7-yl)-5-cyano-3,4-dihydroxytetrahydrofuran-2-yl)methyl D-phenylalaninate]", "values": [{"measurement": "inhibition at 10 µM", "setting": "SARS-CoV-2 replicon", "value": 0, "unit": "%"}]}
{"smiles": "N#C[C@@]1(c2ccc3c(N)ncnn23)O[C@H](COC(=O)C2CC2)[C@@H](O)[C@H]1O", "note": "[ATV012, ((2R,3S,4R,5R)-5-(4-aminopyrrolo[2,1-f][1,2,4]triazin-7-yl)-5-cyano-3,4-dihydroxytetrahydrofuran-2-yl)methyl cyclopropanecarboxylate]", "values": [{"measurement": "inhibition at 10 µM", "setting": "SARS-CoV-2 replicon", "value": 97.1, "unit": "%"}]}
